According to patent publication US20170008888A1 (KYORIN PHARMACEUTICAL CO., LTD., priority 2014, published 2017):

Columns and labels:
Type in all cases: binding
[1] = biological target: T1, ERK5 (Homo sapiens, UniProt Q13164); experiment: Probe-based (AX9989 acyl phosphate ATP probe) kinase profiling in Jurkat lysate: ERK5; conditions: for IC50: Jurkat lysate; for inhibition at 1 µM: screening concentration 1.0 μM
T1 construct: screened for activity against several kinases in Jurkat cells; endogenous in cells; host or cells: Jurkat cell lysate
Method: (§1) In this example, potency of the compounds as ERK5 inhibitors was assessed, and the compounds were screened for activity against several kinases in Jurkat cells.
(§2) Jurkat cell pellets were resuspended in four volumes of lysis buffer (50 mM HEPES pH 7.5, 150 mM NaCl, 0.1% Triton-X-100, 1% v/v phosphatase, inhibitor cocktail II [EMD/Calbiochem, #524625]), sonicated using a tip, sonicator, and Dounce homogenized. Lysate was cleared by centrifugation, at 16,000 g for 15 min., was gel filtered (BioRad 10DG) and MnCl2 was then added to a final concentration of 20 mM before treatment with the test compound and probe labeling. […] All compound treatments were performed at room temperature.
(§3) Acyl phosphate ATP probe (AX9989) labeling reactions were performed at room temperature with a final probe concentration of 5 μM after a 15 min pre-incubation of lysate with a test compound. All reactions were performed in duplicate, using 445 μl/sample at 5 mg/ml. Probe-labeled lysates were denatured and reduced (6 M urea, 10 mM DTT, 65° C., 15 min), alkylated (40 mM iodoacetamide, 37° C., 30 min, and gel filtered (Sephadex G25) into 10 mM ammonium bicarbonate, 2 M urea, 5 mM methionine. The desalted protein mixture was digested with trypsin (0.015 mg/ml) for 1 hr at 37° C., and desthiobiotinylated peptides were captured using a […] high-capacity streptavidin resin (Thermo Scientific). Captured peptides were then washed extensively using 150 μl/wash with three different wash buffers: (A) 3 times with 1% triton, 0.5% tergitol, 1 mM EDTA in PBS; (B) 18 times with PBS; and (C) 8 times with HPLC grade water. Peptides were eluted from the streptavidin beads using two 35-μL washes of a 50% CH3CN/water mixture containing 0.1% TFA at room temperature.
(§4) Kinase active site peptides were identified and quantified using LC/MS. Percent inhibition was calculated as the normalized decrease in the ESI-MS fragment intensities of probe-labeled peptides in samples incubated with the test compound compared to those without.
ERK5 IC50 values were calculated from the percent inhibition and the screening concentration.

[2] = biological target: T2, ACK (Homo sapiens, UniProt Q07912); experiment: Probe-based (AX9989) kinase profiling in Jurkat lysate: ACK; conditions: for inhibition at 1 µM: screening concentration 1.0 μM
T2 construct: screened for activity against several kinases in Jurkat cells; endogenous in cells; host or cells: Jurkat cell lysate
Method: as §1, §2, §3, §4

[3] = biological target: T3, AurA (Homo sapiens, UniProt O14965); experiment: Probe-based (AX9989) kinase profiling in Jurkat lysate: AurA; conditions: for inhibition at 1 µM: screening concentration 1.0 μM
T3 construct: screened for activity against several kinases in Jurkat cells; endogenous in cells; host or cells: Jurkat cell lysate
T3 sequence (O14965 1-403): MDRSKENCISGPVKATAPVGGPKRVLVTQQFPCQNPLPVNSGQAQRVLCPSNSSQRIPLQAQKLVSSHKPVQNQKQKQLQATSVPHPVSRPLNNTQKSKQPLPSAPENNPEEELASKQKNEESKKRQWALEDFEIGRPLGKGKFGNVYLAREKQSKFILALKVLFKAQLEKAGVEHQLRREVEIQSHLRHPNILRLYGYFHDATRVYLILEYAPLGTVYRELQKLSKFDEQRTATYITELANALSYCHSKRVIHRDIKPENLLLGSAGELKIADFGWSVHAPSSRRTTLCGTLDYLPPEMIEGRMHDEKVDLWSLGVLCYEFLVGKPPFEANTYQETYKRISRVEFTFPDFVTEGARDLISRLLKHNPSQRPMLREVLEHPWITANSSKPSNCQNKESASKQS
Method: as §1, §2, §3, §4

[4] = biological target: T4, JAK1 (Homo sapiens, UniProt P23458); experiment: Probe-based (AX9989) kinase profiling in Jurkat lysate: JAK1; conditions: for inhibition at 1 µM: screening concentration 1.0 μM
T4 construct: screened for activity against several kinases in Jurkat cells; endogenous in cells; host or cells: Jurkat cell lysate
Method: as §1, §2, §3, §4

[5] = biological target: T5, TAO2 (Homo sapiens, UniProt Q9UL54); experiment: Probe-based (AX9989) kinase profiling in Jurkat lysate: TAO2; conditions: for inhibition at 1 µM: screening concentration 1.0 μM
T5 construct: screened for activity against several kinases in Jurkat cells; endogenous in cells; host or cells: Jurkat cell lysate
T5 sequence (Q9UL54 1-1235): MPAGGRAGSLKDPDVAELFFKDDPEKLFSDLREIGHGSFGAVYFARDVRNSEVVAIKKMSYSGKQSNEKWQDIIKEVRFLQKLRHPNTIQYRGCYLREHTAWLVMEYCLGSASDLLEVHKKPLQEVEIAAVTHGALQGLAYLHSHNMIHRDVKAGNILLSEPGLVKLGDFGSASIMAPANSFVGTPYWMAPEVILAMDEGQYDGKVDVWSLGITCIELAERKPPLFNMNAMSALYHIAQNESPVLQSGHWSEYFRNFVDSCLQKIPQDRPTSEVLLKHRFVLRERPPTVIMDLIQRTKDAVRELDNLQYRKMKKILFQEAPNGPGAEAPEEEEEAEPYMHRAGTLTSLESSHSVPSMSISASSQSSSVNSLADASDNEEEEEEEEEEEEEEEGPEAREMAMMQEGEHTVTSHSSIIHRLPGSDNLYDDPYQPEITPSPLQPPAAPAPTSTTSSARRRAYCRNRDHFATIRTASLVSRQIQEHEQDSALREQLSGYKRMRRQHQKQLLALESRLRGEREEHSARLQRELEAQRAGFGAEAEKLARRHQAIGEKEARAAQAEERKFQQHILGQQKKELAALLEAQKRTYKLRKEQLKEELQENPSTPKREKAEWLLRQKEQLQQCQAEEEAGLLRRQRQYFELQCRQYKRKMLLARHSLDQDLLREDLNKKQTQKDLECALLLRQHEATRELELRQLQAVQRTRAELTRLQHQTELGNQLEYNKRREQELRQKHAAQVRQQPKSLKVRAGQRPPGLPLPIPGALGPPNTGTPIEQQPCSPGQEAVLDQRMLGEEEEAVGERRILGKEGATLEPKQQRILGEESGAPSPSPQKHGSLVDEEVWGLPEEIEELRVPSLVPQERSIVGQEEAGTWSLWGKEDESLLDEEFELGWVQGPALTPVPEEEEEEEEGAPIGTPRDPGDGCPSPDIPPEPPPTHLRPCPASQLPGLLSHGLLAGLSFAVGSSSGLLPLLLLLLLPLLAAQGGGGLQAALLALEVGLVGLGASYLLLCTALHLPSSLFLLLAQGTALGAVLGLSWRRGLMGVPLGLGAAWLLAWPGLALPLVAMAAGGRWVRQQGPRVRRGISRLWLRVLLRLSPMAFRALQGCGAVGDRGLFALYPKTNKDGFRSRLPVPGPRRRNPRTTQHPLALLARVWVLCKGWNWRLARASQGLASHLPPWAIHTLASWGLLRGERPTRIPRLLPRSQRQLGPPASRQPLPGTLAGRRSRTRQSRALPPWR
Method: as §1, §2, §3, §4

[6] = test system: AurB or AurC; experiment: Probe-based (AX9989) kinase profiling in Jurkat lysate: AurB or AurC
Method: as §1, §2, §3, §4

[7] = test system: AMPKa1 or AMPKa2; experiment: Probe-based (AX9989) kinase profiling in Jurkat lysate: AMPKa1 or AMPKa2
Method: as §1, §2, §3, §4

[8] = test system: ABL or ARG; experiment: Probe-based (AX9989) kinase profiling in Jurkat lysate: ABL or ARG
Method: as §1, §2, §3, §4

[9] = calculated from percent inhibition of AX9989 labeling and the screening concentration
[10] = read-out: Kinase inhibition % at indicated screening concentration: ERK5
[11] = read-out: Kinase inhibition % at indicated screening concentration: ACK
[12] = read-out: Kinase inhibition % at indicated screening concentration: AurA
[13] = read-out: Kinase inhibition % at indicated screening concentration: JAK1
[14] = read-out: Kinase inhibition % at indicated screening concentration: TAO2

T2 sequence (Q07912 whole entry): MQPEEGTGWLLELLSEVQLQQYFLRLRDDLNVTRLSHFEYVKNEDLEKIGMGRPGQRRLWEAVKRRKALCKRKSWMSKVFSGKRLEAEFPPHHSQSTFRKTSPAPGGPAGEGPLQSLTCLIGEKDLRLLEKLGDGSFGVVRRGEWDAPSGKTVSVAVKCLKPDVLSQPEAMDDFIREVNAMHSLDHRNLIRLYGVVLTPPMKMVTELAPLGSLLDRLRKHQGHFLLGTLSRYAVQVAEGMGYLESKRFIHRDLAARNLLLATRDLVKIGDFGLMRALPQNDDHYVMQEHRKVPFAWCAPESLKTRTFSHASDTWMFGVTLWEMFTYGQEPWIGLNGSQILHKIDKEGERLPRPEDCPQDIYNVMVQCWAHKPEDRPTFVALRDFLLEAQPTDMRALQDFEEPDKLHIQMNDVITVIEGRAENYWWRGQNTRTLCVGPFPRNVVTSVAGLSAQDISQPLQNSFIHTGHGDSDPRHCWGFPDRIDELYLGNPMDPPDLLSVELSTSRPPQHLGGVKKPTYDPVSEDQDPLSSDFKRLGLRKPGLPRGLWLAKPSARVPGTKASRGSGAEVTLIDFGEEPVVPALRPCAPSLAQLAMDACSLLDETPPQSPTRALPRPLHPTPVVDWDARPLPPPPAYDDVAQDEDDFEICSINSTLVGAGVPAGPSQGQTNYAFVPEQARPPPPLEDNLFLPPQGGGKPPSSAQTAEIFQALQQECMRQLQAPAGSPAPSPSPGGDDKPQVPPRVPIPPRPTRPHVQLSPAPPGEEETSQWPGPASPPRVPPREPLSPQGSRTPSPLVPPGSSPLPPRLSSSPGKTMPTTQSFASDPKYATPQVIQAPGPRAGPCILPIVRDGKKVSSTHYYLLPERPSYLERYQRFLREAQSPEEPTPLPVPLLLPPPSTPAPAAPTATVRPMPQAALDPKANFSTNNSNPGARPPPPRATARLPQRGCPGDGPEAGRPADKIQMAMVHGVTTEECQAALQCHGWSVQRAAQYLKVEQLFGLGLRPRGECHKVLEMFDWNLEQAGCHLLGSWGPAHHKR
T4 sequence (P23458 whole entry): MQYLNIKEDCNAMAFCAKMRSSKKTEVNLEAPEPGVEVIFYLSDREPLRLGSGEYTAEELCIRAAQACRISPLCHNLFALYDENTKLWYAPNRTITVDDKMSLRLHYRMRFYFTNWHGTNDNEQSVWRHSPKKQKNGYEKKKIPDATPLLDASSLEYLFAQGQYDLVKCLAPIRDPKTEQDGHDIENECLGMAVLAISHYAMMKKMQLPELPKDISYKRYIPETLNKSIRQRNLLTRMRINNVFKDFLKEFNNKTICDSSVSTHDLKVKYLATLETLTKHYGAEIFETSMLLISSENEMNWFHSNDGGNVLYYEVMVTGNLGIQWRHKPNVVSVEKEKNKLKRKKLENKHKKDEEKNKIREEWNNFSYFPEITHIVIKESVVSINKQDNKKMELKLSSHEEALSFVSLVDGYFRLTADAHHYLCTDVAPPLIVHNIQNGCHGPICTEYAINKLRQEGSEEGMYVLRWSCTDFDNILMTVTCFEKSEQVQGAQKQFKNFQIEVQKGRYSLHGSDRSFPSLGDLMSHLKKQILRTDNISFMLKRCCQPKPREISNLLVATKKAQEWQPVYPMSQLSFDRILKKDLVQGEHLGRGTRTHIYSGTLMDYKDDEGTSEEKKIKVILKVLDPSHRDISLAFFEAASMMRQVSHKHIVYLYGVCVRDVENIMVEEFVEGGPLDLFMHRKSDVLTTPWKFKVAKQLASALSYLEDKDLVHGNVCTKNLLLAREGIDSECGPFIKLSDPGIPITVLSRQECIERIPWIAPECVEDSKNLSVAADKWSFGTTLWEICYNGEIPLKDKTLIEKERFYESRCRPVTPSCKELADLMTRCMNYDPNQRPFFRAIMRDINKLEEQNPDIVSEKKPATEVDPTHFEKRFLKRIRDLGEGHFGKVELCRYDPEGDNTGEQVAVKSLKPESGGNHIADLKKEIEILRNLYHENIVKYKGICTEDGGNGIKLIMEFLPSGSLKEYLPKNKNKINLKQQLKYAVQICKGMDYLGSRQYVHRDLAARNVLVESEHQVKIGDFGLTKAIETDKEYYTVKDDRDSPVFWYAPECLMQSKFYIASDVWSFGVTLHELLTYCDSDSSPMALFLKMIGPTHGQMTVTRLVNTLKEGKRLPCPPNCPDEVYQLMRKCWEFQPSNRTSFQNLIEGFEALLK
T1 sequence (Q13164 whole entry): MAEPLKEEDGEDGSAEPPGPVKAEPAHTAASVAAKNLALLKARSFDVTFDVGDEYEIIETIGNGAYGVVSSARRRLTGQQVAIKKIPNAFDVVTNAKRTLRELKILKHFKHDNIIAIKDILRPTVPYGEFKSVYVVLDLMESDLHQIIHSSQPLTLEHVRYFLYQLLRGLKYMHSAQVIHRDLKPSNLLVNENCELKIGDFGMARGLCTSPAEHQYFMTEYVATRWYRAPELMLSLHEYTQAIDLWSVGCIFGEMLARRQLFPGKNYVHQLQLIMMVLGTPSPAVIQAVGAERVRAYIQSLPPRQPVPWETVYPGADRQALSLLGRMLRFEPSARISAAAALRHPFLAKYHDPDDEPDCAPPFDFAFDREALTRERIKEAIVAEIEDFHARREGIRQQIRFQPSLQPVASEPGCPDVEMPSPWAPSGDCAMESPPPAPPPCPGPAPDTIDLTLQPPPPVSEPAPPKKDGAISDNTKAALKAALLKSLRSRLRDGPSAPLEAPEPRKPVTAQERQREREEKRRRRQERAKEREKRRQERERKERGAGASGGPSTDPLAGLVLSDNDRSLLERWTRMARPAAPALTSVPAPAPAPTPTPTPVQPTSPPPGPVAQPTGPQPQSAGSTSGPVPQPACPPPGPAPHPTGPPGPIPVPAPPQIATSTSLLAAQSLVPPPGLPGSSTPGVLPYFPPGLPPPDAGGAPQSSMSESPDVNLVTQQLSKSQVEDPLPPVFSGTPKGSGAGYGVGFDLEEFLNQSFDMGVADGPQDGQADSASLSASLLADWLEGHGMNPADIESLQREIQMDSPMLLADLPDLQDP

IC50 [1, 9] | inhibition at 1 µM [1, 10] | inhibition at 1 µM [2, 11] | inhibition at 1 µM [3, 12] | inhibition at 1 µM [4, 13] | inhibition at 1 µM [5, 14] | Kinase inhibition % at indicated screening concentration: AurB or AurC ([6]; screening concentration 1.0 μM) | Kinase inhibition % at indicated screening concentration: AMPKa1 or AMPKa2 ([7]; screening concentration 1.0 μM) | Kinase inhibition % at indicated screening concentration: ABL or ARG ([8]; screening concentration 1.0 μM) | SMILES | also measured
> 500 nM | 50 to 75% | ≤ 35% | ≤ 35% | ≤ 35% | ≤ 35% | E (E is ≦35%) | E (E is ≦35%) | E (E is ≦35%) | COc1ccccc1Nc1cc2c(cn1)N(C)C(=O)c1ccccc1N2C [Compound 19] | –
101 to 500 nM | – | – | – | – | – | – | – | – | CCOc1cc(CO)ccc1Nc1cc2c(cn1)N(C)C(=O)c1ccccc1N2C [Compound 112] | inhibition at 0.1 µM ([1]; screening concentration 0.1 μM, read-out: Kinase inhibition % at indicated screening concentration: ERK5): 35 to 50%; inhibition at 0.1 µM ([2]; screening concentration 0.1 μM, read-out: Kinase inhibition % at indicated screening concentration: ACK): ≤ 35%; inhibition at 0.1 µM ([3]; screening concentration 0.1 μM, read-out: Kinase inhibition % at indicated screening concentration: AurA): ≤ 35%; inhibition at 0.1 µM ([4]; screening concentration 0.1 μM, read-out: Kinase inhibition % at indicated screening concentration: JAK1): ≤ 35%; inhibition at 0.1 µM ([5]; screening concentration 0.1 μM, read-out: Kinase inhibition % at indicated screening concentration: TAO2): ≤ 35%; Kinase inhibition % at indicated screening concentration: AurB or AurC ([6]; screening concentration 0.1 μM): E (E is ≦35%); Kinase inhibition % at indicated screening concentration: AMPKa1 or AMPKa2 ([7]; screening concentration 0.1 μM): E (E is ≦35%); Kinase inhibition % at indicated screening concentration: ABL or ARG ([8]; screening concentration 0.1 μM): E (E is ≦35%)
> 500 nM | 35 to 50% | ≤ 35% | ≤ 35% | ≤ 35% | ≤ 35% | E (E is ≦35%) | E (E is ≦35%) | E (E is ≦35%) | COc1ccc(C(=O)O)cc1Nc1cc2c(cn1)N(C)C(=O)c1ccccc1N2C [Compound 36] | –
– | – | – | – | – | – | – | – | – | CCOc1cc(C(=O)N2CC[C@@H](N(C)C)C2)ccc1Nc1cc2c(cn1)N(C)S(=O)(=O)c1ccccc1N2C [Compound T3] | IC50 ([1]; calculated from percent inhibition and screening concentration, AX9989 probe): > 500 nM; inhibition at 10 µM ([1]; screening concentration 10 μM, read-out: ERK5 Inhibition % at indicated screening concentration): ≤ 35%; inhibition at 10 µM ([2]; screening concentration 10 μM, read-out: ACK Inhibition % at indicated screening concentration): ≤ 35%; inhibition at 10 µM ([3]; screening concentration 10 μM, read-out: AurA Inhibition % at indicated screening concentration): ≤ 35%; inhibition at 10 µM ([4]; screening concentration 10 μM, read-out: JAK1 Inhibition % at indicated screening concentration): ≤ 35%; inhibition at 10 µM ([5]; screening concentration 10 μM, read-out: TAO2 Inhibition % at indicated screening concentration): ≤ 35%; AurB or AurC Inhibition % at indicated screening concentration ([6]; screening concentration 10 μM): E (E is ≦35%); AMPKa1 or AMPKa2 Inhibition % at indicated screening concentration ([7]; screening concentration 10 μM): E (E is ≦35%); ABL or ARG Inhibition % at indicated screening concentration ([8]; screening concentration 10 μM): E (E is ≦35%)
